Patent US9156845B2, “4-(substituted amino)-7H-pyrrolo[2,3-d] pyrimidines as LRRK2 inhibitors” (Pfizer Inc., priority 2012, dated 2015)

Columns and labels:
Assay in all cases: ActivX kinase probe assay (human PBMC)
Format in all cases: binding
[1] = target: MAP2K6 (Homo sapiens (Human), UniProt P52564); details: MAP2K6, read-out: percent inhibition
[2] = target: eEF2K (Homo sapiens (Human), UniProt O00418); details: eEF2K, read-out: percent inhibition
[3] = tested on: IKKe, TBK1
[4] = target: PIP4K2A (Homo sapiens (Human), UniProt P48426); details: PIP4K2A, read-out: percent inhibition
[5] = target: PIK3CG (Homo sapiens (Human), UniProt P48736); details: PIK3CG, read-out: percent inhibition
[6] = target: CaMK2d (Homo sapiens (Human), UniProt Q13557); details: CaMK2d, read-out: percent inhibition
[7] = tested on: KSR1, KSR2
[8] = target: BRAF (Homo sapiens (Human), UniProt P15056); details: BRAF, read-out: percent inhibition
[9] = target: DGKA (Homo sapiens (Human), UniProt P23743); details: DGKA, read-out: percent inhibition
[10] = tested on: MST1, MST2
[11] = target: IKKb (Homo sapiens (Human), UniProt O14920); details: IKKb, read-out: percent inhibition
[12] = target: GSK3B (Homo sapiens (Human), UniProt P49841); details: GSK3B, read-out: percent inhibition
[13] = tested on: FYN, SRC, YES
[14] = target: LOK (Homo sapiens (Human), UniProt O94804); details: LOK, read-out: percent inhibition
Chain of LOK (O94804 whole entry): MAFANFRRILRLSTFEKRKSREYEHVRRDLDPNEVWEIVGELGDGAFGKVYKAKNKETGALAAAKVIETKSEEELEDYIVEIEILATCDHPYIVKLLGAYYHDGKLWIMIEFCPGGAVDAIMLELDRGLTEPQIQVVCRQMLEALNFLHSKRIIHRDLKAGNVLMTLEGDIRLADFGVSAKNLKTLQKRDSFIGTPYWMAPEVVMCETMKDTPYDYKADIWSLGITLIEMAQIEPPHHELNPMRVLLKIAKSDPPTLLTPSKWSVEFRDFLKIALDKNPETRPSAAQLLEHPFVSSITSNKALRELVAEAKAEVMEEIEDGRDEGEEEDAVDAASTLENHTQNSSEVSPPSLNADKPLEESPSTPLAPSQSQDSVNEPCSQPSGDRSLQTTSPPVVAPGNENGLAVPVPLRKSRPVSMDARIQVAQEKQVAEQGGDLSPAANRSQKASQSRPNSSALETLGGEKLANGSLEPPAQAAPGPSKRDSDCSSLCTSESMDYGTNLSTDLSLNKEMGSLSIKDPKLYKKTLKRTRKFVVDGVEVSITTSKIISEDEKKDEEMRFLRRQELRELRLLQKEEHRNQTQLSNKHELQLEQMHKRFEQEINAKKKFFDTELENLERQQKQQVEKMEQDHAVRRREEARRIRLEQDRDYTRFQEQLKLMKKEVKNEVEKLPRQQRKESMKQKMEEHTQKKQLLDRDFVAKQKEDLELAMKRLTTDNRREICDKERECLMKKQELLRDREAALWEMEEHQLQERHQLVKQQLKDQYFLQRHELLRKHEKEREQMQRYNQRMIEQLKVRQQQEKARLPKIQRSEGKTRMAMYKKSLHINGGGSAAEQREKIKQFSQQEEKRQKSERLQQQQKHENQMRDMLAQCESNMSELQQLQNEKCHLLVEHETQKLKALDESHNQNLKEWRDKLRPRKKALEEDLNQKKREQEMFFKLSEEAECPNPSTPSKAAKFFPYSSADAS

[15] = tested on: ZC1/HGK, ZC2/TNIK, ZC3/MINK
[16] = target: GSK3A (Homo sapiens (Human), UniProt P49840); details: GSK3A, read-out: percent inhibition
[17] = target: RSKL1 domain1 (Homo sapiens (Human), UniProt Q96S38); details: RSKL1 domain1, read-out: percent inhibition
[18] = target: NEK1 (Homo sapiens (Human), UniProt Q96PY6); details: NEK1, read-out: percent inhibition
[19] = target: MST2 (Homo sapiens (Human), UniProt Q13188); details: read-out: percent inhibition
Chain of MST2 (Q13188 whole entry, the tested form may be a part): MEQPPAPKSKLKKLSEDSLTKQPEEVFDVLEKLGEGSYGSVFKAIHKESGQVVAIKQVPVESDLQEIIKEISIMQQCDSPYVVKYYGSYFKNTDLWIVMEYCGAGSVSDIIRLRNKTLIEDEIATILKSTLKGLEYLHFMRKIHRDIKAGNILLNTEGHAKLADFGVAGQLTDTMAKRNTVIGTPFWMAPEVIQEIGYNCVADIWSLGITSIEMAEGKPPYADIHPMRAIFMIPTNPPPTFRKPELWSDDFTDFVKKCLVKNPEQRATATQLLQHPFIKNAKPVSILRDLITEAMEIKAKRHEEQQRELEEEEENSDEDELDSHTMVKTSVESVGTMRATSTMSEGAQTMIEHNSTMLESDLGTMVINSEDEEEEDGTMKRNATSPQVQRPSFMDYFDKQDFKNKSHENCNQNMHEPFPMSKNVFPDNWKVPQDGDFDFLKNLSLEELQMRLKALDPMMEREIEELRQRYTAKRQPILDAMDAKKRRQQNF

[20] = target: JAK2 domain2 (Homo sapiens (Human), UniProt O60674); details: JAK2 domain2, read-out: percent inhibition
[21] = target: CaMK1d (Homo sapiens (Human), UniProt Q8IU85); details: CaMK1d, read-out: percent inhibition
[22] = target: GPRK6 (Homo sapiens (Human), UniProt P43250); details: GPRK6, read-out: percent inhibition
[23] = target: CaMK1a (Homo sapiens (Human), UniProt Q14012); details: CaMK1a, read-out: percent inhibition
[24] = target: MLK3 (Homo sapiens (Human), UniProt Q16584); details: MLK3, read-out: percent inhibition
[25] = target: ZAP70 (Homo sapiens (Human), UniProt P43403); details: ZAP70, read-out: percent inhibition
Chain of ZAP70 (P43403 whole entry): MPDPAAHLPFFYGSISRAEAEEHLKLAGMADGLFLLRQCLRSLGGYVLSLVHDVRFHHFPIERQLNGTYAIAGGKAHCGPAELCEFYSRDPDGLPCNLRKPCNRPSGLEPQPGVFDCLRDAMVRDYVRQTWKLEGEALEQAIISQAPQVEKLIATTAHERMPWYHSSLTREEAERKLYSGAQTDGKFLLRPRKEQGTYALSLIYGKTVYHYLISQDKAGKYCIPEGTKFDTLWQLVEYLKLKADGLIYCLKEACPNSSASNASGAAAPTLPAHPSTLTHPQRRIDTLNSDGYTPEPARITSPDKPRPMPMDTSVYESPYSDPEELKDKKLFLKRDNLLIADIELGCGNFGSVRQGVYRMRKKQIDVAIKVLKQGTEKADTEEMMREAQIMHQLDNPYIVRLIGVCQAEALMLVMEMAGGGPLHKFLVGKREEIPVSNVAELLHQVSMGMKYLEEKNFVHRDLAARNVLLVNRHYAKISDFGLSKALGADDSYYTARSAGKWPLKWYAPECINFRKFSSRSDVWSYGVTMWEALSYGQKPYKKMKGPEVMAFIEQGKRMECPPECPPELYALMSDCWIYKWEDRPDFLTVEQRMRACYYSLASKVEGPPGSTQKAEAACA

[26] = tested on: NEK6, NEK7
[27] = target: CDC2 (Homo sapiens (Human), UniProt P06493); details: CDC2, read-out: percent inhibition
[28] = target: GCN2 (Homo sapiens (Human), UniProt Q9P2K8); details: GCN2, read-out: percent inhibition
Chain of GCN2 (Q9P2K8 whole entry): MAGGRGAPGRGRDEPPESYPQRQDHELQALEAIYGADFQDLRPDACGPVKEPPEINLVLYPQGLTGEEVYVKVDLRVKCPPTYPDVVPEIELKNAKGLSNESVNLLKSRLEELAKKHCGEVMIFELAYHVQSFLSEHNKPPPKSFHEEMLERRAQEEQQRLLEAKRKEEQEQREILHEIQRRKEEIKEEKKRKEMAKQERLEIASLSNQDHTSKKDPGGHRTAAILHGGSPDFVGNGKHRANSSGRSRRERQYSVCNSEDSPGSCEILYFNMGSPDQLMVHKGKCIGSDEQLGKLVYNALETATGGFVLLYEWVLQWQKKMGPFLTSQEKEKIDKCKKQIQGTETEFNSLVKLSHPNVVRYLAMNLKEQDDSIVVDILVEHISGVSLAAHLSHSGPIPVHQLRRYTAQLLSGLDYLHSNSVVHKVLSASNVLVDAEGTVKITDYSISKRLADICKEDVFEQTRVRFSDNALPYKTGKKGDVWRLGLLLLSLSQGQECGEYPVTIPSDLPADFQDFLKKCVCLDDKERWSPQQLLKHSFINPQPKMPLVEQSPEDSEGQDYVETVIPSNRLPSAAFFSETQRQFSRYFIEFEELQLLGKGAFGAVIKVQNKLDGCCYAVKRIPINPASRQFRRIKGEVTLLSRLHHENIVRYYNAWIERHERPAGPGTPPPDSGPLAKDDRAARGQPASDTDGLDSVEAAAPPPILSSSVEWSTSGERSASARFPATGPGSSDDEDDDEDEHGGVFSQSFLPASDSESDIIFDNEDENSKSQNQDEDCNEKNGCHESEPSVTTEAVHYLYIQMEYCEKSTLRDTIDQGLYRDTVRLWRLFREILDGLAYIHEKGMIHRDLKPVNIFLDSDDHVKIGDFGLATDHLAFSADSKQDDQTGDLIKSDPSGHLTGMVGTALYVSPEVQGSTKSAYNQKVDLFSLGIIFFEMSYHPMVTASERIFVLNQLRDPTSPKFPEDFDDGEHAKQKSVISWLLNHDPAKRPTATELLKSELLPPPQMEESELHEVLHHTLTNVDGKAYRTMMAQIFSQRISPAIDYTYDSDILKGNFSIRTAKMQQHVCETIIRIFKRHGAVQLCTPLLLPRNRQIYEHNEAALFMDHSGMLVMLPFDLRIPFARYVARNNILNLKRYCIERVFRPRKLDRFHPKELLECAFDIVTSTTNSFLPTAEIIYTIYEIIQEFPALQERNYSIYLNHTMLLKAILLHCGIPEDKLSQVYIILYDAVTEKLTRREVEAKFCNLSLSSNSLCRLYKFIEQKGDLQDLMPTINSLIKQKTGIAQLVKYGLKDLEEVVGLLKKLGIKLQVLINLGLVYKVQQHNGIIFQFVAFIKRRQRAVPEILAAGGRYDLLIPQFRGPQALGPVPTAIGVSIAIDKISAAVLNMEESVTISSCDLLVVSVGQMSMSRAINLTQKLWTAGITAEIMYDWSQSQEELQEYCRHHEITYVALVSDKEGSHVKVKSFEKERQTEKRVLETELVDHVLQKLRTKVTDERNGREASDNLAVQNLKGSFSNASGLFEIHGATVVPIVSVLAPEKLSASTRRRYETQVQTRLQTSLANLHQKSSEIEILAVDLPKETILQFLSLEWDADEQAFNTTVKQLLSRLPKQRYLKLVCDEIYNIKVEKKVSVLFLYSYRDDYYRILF

[29] = tested on: Wnk1, Wnk2, Wnk4
[30] = target: MST1 (Homo sapiens (Human), UniProt Q13043); details: read-out: percent inhibition
[31] = target: ACK (Homo sapiens (Human), UniProt Q07912); details: ACK, read-out: percent inhibition
[32] = target: SLK (Homo sapiens (Human), UniProt Q9H2G2); details: SLK, read-out: percent inhibition
Chain of SLK (Q9H2G2 whole entry): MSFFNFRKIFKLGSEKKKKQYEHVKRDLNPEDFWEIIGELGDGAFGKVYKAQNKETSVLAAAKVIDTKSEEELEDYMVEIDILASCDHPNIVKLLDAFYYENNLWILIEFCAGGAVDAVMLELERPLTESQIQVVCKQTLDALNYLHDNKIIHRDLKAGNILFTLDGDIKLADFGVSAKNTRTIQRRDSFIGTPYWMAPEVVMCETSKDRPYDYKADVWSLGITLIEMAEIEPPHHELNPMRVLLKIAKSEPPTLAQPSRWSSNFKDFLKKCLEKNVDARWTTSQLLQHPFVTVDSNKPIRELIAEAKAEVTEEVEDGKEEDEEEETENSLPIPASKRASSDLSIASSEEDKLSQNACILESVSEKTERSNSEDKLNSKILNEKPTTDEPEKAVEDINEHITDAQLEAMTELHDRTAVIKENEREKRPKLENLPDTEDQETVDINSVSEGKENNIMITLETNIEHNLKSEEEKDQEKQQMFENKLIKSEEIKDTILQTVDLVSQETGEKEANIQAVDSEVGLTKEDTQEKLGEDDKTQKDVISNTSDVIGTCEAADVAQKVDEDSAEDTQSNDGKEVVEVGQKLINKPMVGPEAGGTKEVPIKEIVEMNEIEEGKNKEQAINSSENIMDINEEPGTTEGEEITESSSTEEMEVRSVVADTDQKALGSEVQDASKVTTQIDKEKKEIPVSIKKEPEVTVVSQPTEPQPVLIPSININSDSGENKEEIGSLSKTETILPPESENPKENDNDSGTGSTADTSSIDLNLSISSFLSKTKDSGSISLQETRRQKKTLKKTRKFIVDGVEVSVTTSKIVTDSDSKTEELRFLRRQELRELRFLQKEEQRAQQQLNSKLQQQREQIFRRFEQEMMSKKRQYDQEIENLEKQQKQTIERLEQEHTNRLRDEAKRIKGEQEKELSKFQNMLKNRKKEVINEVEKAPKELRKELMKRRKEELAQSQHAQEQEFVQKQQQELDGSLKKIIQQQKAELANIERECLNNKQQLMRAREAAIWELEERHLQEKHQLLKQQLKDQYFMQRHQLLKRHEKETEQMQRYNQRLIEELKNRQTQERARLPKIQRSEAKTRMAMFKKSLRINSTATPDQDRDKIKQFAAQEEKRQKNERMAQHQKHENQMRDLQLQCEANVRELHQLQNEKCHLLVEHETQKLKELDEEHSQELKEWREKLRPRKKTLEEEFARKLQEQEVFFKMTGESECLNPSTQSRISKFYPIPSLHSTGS

In the case of `Cn1cc(-c2c[nH]c3ncnc(N4CCOCC4)c23)cc1C#N` [Example 217, 1-methyl-4-[4-(morpholin-4-yl)-7H-pyrrolo[2,3-d]pyrimidin-5-yl]-1H-pyrrole-2-carbonitrile], the inhibition at 0.1 µM ([1]; 0.1 μM) is reported as 11.3%, the inhibition at 1 µM ([1]; 1 μM) is reported as -0.1% and the inhibition at 0.1 µM ([2]; 0.1 μM) is reported as -12.1%. For the same compound, the inhibition at 1 µM ([2]; 1 μM) was 2.2%, the percent inhibition ([3]; 0.1 μM) was 2.3% and the percent inhibition ([3]; 1 μM) was 13.3%. It also gave an inhibition at 0.1 µM ([4]; 0.1 μM) of 7.8%, an inhibition at 1 µM ([4]; 1 μM) of 8.2% and an inhibition at 0.1 µM ([5]; 0.1 μM) of -3.4%. For the same compound, the inhibition at 1 µM ([5]; 1 μM) was -22%, the inhibition at 0.1 µM ([6]; 0.1 μM) was 9.8% and the inhibition at 1 µM ([6]; 1 μM) was 16.1%. For the same compound, the percent inhibition ([7]; 0.1 μM) was −6.2%, the percent inhibition ([7]; 1 μM) was −6.8% and the inhibition at 0.1 µM ([8]; 0.1 μM) was -8.4%. It also gave an inhibition at 1 µM ([8]; 1 μM) of -10.4%, an inhibition at 0.1 µM ([9]; 0.1 μM) of -2.8% and an inhibition at 1 µM ([9]; 1 μM) of 4.7%. The percent inhibition ([10]; 0.1 μM) was 21.9%, the percent inhibition ([10]; 1 μM) was 72.6% and the inhibition at 0.1 µM ([11]; 0.1 μM) was 7.1%. For the same compound, the inhibition at 1 µM ([11]; 1 μM) was 6.5%, the inhibition at 0.1 µM ([12]; 0.1 μM) was -4.3% and the inhibition at 1 µM ([12]; 1 μM) was 12.4%. It also gave a percent inhibition ([13]; 0.1 μM) of 18.4%, a percent inhibition ([13]; 1 μM) of −1.4% and an inhibition at 0.1 µM ([14]; 0.1 μM) of -6.4%. For the same compound, the inhibition at 1 µM ([14]; 1 μM) was 56.1%, the percent inhibition ([15]; 0.1 μM) was −1.2% and the percent inhibition ([15]; 1 μM) was 7.7%. For the same compound, the inhibition at 0.1 µM ([16]; 0.1 μM) was 0.6%, the inhibition at 1 µM ([16]; 1 μM) was 8.9% and the inhibition at 0.1 µM ([17]; 0.1 μM) was -15.9%. The inhibition at 1 µM ([17]; 1 μM) was -30.6%, the inhibition at 0.1 µM ([18]; 0.1 μM) was 4.8% and the inhibition at 1 µM ([18]; 1 μM) was -5.1%. The inhibition at 0.1 µM ([19]; 0.1 μM) was 34.9%, the inhibition at 1 µM ([19]; 1 μM) was 83.2% and the inhibition at 0.1 µM ([20]; 0.1 μM) was 4.8%. The inhibition at 1 µM ([20]; 1 μM) was -6.4%, the inhibition at 0.1 µM ([21]; 0.1 μM) was 11.7% and the inhibition at 1 µM ([21]; 1 μM) was 3.1%. The inhibition at 0.1 µM ([22]; 0.1 μM) was -0.8%, the inhibition at 1 µM ([22]; 1 μM) was 3.6% and the inhibition at 0.1 µM ([23]; 0.1 μM) was -5.4%. The inhibition at 1 µM ([23]; 1 μM) was -7.1%, the inhibition at 0.1 µM ([24]; 0.1 μM) was -13.5% and the inhibition at 1 µM ([24]; 1 μM) was -9.6%. For the same compound, the inhibition at 0.1 µM ([25]; 0.1 μM) was -25%, the inhibition at 1 µM ([25]; 1 μM) was -6% and the percent inhibition ([26]; 0.1 μM) was −2.9%. For the same compound, the percent inhibition ([26]; 1 μM) was 6.4%, the inhibition at 0.1 µM ([27]; 0.1 μM) was 28.7% and the inhibition at 1 µM ([27]; 1 μM) was 24.4%. It also gave an inhibition at 0.1 µM ([28]; 0.1 μM) of -7.7%, an inhibition at 1 µM ([28]; 1 μM) of -3.1% and a percent inhibition ([29]; 0.1 μM) of 2.2%. It also gave a percent inhibition ([29]; 1 μM) of −5.4%, an inhibition at 0.1 µM ([30]; 0.1 μM) of 25.6% and an inhibition at 1 µM ([30]; 1 μM) of 73.5%. It also gave an inhibition at 0.1 µM ([31]; 0.1 μM) of -9.8%, an inhibition at 1 µM ([31]; 1 μM) of -19.5% and an inhibition at 0.1 µM ([32]; 0.1 μM) of 22.5%. It also gave an inhibition at 1 µM ([32]; 1 μM) of 39.1%.
